Experimental data taken from patent US6488164B2, “Compositions including modafinil for treatment of attention deficit hyperactivity disorder and multiple sclerosis fatigue” (Cephalon, Inc., priority 1999, dated 2002).

Experiments:
MS fatigue = conditions: cited from earlier work
[1] = system: TMN of the posterior hypothalamus; conditions: cats, wake-promoting dose; cited from earlier work
[2] = system: Fos-IR neurons in VLPO, TMN, cortex; test: Fos immunohistochemistry cell counts in rat brain, modafinil given at noon (Example 2); assay type: in vivo
Description: (§1) Experimental Design: In the following examples, rats were sacrificed two hours following treatment, and the brains were analyzed using immunohistochemistry for Fos. In Examples 1 and 2, rats were instrumented for electroencephalogram (EEG) and electromyogram (EMG) recordings. To avoid the stress of handling during administration of modafinil or vehicle, chronic catheters were placed in the peritoneal cavity for administration of modafinil or vehicle.
(§2) Animals and Recording Environment: 65, male, Sprague-Dawley rats (Harlan) weighing 270-330 g were housed individually in a pathogen-free barrier facility in a room maintained at 21.5-22.5° C. with lights on at 7 AM and off at 7 PM. Rats had food and water available ad lib. At least 3 days before each experiment, rats were placed into a light-tight, sound-attenuated recording chamber (Biocube) in an isolated room. Light intensity was 100-150 lux at midlevel inside each cage. The Institutional Animal Care and Use Committees of Beth Israel Deaconess Medical Center and Harvard Medical School approved all procedures.
(§3) Animal Surgery: Under chloral hydrate anesthesia (350 mg/kg ip), the rats of Examples 1 and 2 were surgically implanted with four EEG screws (AP: +3, −4; RL: +2,−2 from bregma) lightly contacting the dura and two EMG wires (Plastics One, Roanoke, Va.) below the nuchal muscles. The leads were connected to a six channel connector (Plastics One) which was affixed to the skull with dental acrylic. A telemetric temperature transmitter (TA10TA-F40, Data Sciences International, St. Paul, Minn.) was placed in the peritoneal cavity of all but 5 rats. To administer drugs without handling the rats, an 80 cm silastic catheter (1 mm I.D., Baxter Scientific Products) was inserted into the peritoneal cavity, subcutaneously tunneled to the scalp, cemented in place with dental acrylic, and protected externally by a spring. This intraperitoneal catheter was filled with heparinized, pyrogen-free saline and flushed weekly and 3 days prior to the experiment. Animals recovered at least 14 days and then acclimated to recording cables for three days prior to the start of physiological recordings.
(§4) Drug Administration: Modafinil (lot #PA 008; Cephalon, Inc., West Chester, Pa.) was suspended in a solution of 0.25% methylcellulose (pH=7.4, Dow Chemical Inc., Midland, Mich.) in 0.9% pyrogen-free saline. The drug was administered in a volume of 2.0 ml/kg at doses of 150 mg/kg. Control animals received an equal volume of methylcellulose vehicle. Catheters were then flushed with 1 ml 0.9% saline to assure delivery of drug into the peritoneal cavity. A red flashlight was used to aid injections performed in the dark.
(§5) Histology and Immunohistochemistry: Two hours following drug injections, animals were deeply anesthetized with chloral hydrate (600 mg/kg ip) and transcardially perfused with 100 ml 0.9% saline followed by 500 ml of phosphate buffered 10% formalin, pH 7.0 (Sigma). Brains were removed, postfixed for 4 hours in formalin, and then allowed to equilibrate in 20% sucrose in 0.1 M phosphate buffered saline (PBS), with 0.02% sodium azide (Sigma) at 4° C. Brains were sectioned (1:5 series, 30 μm) on a freezing microtome and stored in PBS-azide at 4° C. One series from each brain was stained for Fos using previously described methods (Elmquist et al., 1996). […]

wakefulness [3] = conditions: rats, cats, canines, non-human primates; also sleep apnea and narcolepsy models; cited from earlier work
wakefulness [4] = conditions: cited from earlier work
TMN = conditions: rats, wake-promoting doses; cited from earlier work
[5] = system: Fos-IR neurons in cingulate cortex, TMN, VTA; test: Fos immunohistochemistry cell counts in rat brain, modafinil given at midnight (Example 1); assay type: in vivo; conditions: rats
Description: as §1, §2, §3, §4, §5

[6] = rats on normal LD cycle, 150 mg/kg at noon
[7] = rats, modafinil 150 mg/kg ip at noon, 2 h after treatment, n=7
[8] = modafinil 150 mg/kg ip at midnight, 2 h after treatment, mean ± standard error, n=6

## NC1=NC(=O)C(c2ccccc2)O1 (stereo not drawn) [pemoline]
MS fatigue; same study, MS patients
  Beneficial effect in MS fatigue (in words): failed to show a beneficial effect

## NC(=O)C[S+]([O-])C(c1ccccc1)c1ccccc1 (stereo not drawn) [Modafinil, modafinil]
[1]
  Activation of the TMN of the posterior hypothalamus (in words): failed to cause activation of the TMN
[2]; [6]
  Number of Fos-IR neurons in the TMN (in words): markedly increased
  Number of Fos-IR neurons in the VLPO (in words): decreases
[2]; rats, 150 mg/kg at noon
  Expression of Fos in frontal and cingulate cortex (in words): increased expression of Fos
[2]; [7]
  Fos-IR cell count, TMN: 43 ± 5
  Fos-IR cell count, VLPO: 26 ± 3
Wakefulness [3]
  Wakefulness (in words): promotes wakefulness
Wakefulness [4]; 400 mg/day, humans
  Tolerability in clinical trials: well tolerated
Wakefulness [4]; adult humans
  Optimum wakefulness promoting dose: 200 mg/day
Wakefulness [4]; human oral, known in the art
  Lower threshold of wake-promoting doses: about 100 mg/day
TMN
  Association of modafinil-induced wakefulness with activation of the TMN (in words): not associated with activation of the TMN
[5]; 150 mg/kg at midnight
  Fos-IR neurons in TMN relative to controls: four times as many
[5]; 150 mg/kg at midnight, more pronounced in cingulate and pyriform cortex
  Fos immunoreactivity in the cortex versus controls: more Fos immunoreactivity in the cortex than the controls
[5]; [8]
  Fos-IR cell count, TMN: 46 ± 4
  Fos-IR cell count, VTA: 12 ± 3
  Fos-IR cell count, cingulate cortex: 191 ± 38

## NC12CC3CC(CC(C3)C1)C2 [Amantadine, amantadine]
MS fatigue; double blind, randomized study
  Patients with benefit in MS fatigue: 79%
